{
  "source": "patent US20230337663A1",
  "about": "“AGRICULTURAL COMPOSITION” (REVOLUTION BIOTECH LLC, priority 2020, published 2023)",
  "origin": "cited, not measured here",
  "conditions": "Ecolabel Lubricant Substance Classification List",
  "data": [
    {"substance": "Farnesene, mixture of isomers", "values": [
      {"measurement": "toxicity label", "value": "non-toxic"}
    ]}
  ]
}
